Values joined by “and” are separate entries in the source; they are usually repeats but may differ in a detail not shown here. Equal values may be shown once. Read-outs that look alike come from different tables or passages of the source.
Key:
[1] = for Average Cell Number (1 uM) / Cell Number (1 uM) / Normalized Cell Number (1 uM): compound at 1 uM; for Average Cell Number (1 uM) / Average Cell Number (5 uM): average of normalized cell number, n=3, relative to DMSO; for Cell Number (1 uM) / Normalized Cell Number (1 uM) / Cell Number (5 uM) / Normalized Cell Number (5 uM): single replicate; for Cell Number (1 uM) / Cell Number (5 uM): raw cell count; for Normalized Cell Number (1 uM) / Normalized Cell Number (5 uM): relative to negative control DMSO; for Average Cell Number (5 uM) / Cell Number (5 uM) / Normalized Cell Number (5 uM): compound at 5 uM
SARS-CoV-2 = assay: microbe, parasite or virus in culture; assay type: cell-based; details: for activity at 1 µM: Severe acute respiratory syndrome coronavirus 2, 1 uM, read-out: Normalized Infection (1 uM); for activity at 1 µM / activity at 5 µM / Normalized Infection (1 uM) / log2FC Infection (1 uM) / Normalized Infection (5 uM) / log2FC Infection (5 uM): single replicate, relative to negative control DMSO; for activity at 5 µM: Severe acute respiratory syndrome coronavirus 2, 5 uM, read-out: Normalized Infection (5 uM); for % Infection (1 uM) / % Infection (5 uM): single replicate of triplicate
[2] = 1 uM, average log2FC infection (n=3) relative to DMSO
[3] = 5 uM, average log2FC infection (n=3) relative to DMSO

Row | Compound | Toxic (1 uM) [1] | Toxic (5 uM) [1] | Average Cell Number (1 uM) [1] | Cell Number (1 uM) [1] | Normalized Cell Number (1 uM) [1] | Average Cell Number (5 uM) [1] | Cell Number (5 uM) [1] | Normalized Cell Number (5 uM) [1] | HIT (2 Std, 1 uM) (SARS-CoV-2; 1 uM) | Average Infection (1 uM) (SARS-CoV-2; [2]) | Average Infection (5 uM) (SARS-CoV-2; [3]) | HIT (SARS-CoV-2; overall, 1 or 5 uM) | HIT (2 Stdv, 5 uM) (SARS-CoV-2; 5 uM) | activity at 1 µM (SARS-CoV-2) [%] | activity at 5 µM (SARS-CoV-2) [%] | also measured
1 | FC(F)(F)c1cccc(C2=CCN(CCc3ccc4ccccc4c3)CC2)c1 [Xaliproden, xaliproden] | 0 (non-toxic (Normalized Cell number>0.65) | 0 (non-toxic (Normalized Cell number>0.65) | 0.7188 | 4440 and 4549 and 3647 | 0.7577 and 0.7763 and 0.6224 | 0.9135 | 5577 and 5737 and 4927 | 0.9411 and 0.9681 and 0.8314 | HIT | −0.6769 | −0.143 | Yes | – | – | – | –
2 | C[N+]12CCC(CC1)C(OC(=O)C(O)(c1ccccc1)c1ccccc1)C2 (stereo not shown) [Clidinium, clidinium] | 0 (non-toxic (Normalized Cell number>0.65) | 0 (non-toxic (Normalized Cell number>0.65) | 0.6841 | 3871 and 4256 and 3900 | 0.6606 and 0.7263 and 0.6655 | 0.9985 | 5211 and 6271 and 6270 | 0.8793 and 1.058 (2×) | HIT | – | – | Yes | – | – | – | Average Infection (1 uM) (SARS-CoV-2): −0.7651; Average Infection (5 uM) (SARS-CoV-2): −0.1069
3 | C#C[C@]1(O)CC[C@H]2[C@@H]3CCC4=CC(=O)CC[C@@H]4[C@H]3C(=C)C[C@@]21CC [Etonogestrel, etonogestrel] | 0 (non-toxic (Normalized Cell number>0.65) | – | 0.734 | 4255 and 4398 and 4251 | 0.7261 and 0.7505 and 0.7254 | 0.5829 | – | – | HIT | −0.4065 | −1.187 | Yes | HIT | 72 | – | –
4 | O=C(O)CC[C@H]1CC[C@@](c2cc(F)ccc2F)(S(=O)(=O)c2ccc(Cl)cc2)CC1 [MK-0752, mk-0752] | 0 (non-toxic (Normalized Cell number>0.65) | 0 (non-toxic (Normalized Cell number>0.65) | 0.6912 | 3905 and 4070 and 4177 | 0.6664 and 0.6945 and 0.7128 | 0.8746 | 5100 and 5130 and 5319 | 0.8606 and 0.8656 and 0.8975 | HIT | −0.4386 | −0.353 | Yes | – | 70.8 | – | –
5 | CC1(C)S[C@@H]2[C@H](/N=C/N3CCCCCC3)C(=O)N2[C@H]1C(=O)O [Mecillinam, mecillinam] | 0 (non-toxic (Normalized Cell number>0.65) | 0 (non-toxic (Normalized Cell number>0.65) | 1.097 | 6136 and 6699 and 6450 | 1.047 and 1.143 and 1.101 | 0.9928 | 6088 and 5755 and 5808 | 1.027 and 0.9711 and 0.9801 | HIT | −3.47 | −0.06608 | Yes | – | – | 104 | –
6 | CC(C)(C[C@H]1CN(S(=O)(=O)c2cccc(C(F)(F)F)c2)c2cc(-c3cc(F)cc(OC(F)F)c3)ccc2O1)C(=O)O [Cintirorgon, cintirorgon] | 0 (non-toxic (Normalized Cell number>0.65) | 0 (non-toxic (Normalized Cell number>0.65) | 0.7476 | 4247 and 4539 and 4357 | 0.7247 and 0.7746 and 0.7435 | 0.9874 | 5894 and 6058 and 5603 | 0.9946 and 1.022 and 0.9455 | HIT | −0.8423 | −0.109 | Yes | – | 53.8 | – | –
7 | c1cc(OCCN2CCCCC2)cc(-c2n[nH]c3ccc(-c4nc[nH]n4)cc23)c1 [CC-401, cc-401] | 0 (non-toxic (Normalized Cell number>0.65) | 0 (non-toxic (Normalized Cell number>0.65) | 0.8485 | 4691 and 5161 and 5065 | 0.8005 and 0.8807 and 0.8643 | 0.8935 | 4993 and 5513 and 5380 | 0.8425 and 0.9303 and 0.9078 | – | −0.3224 | −0.828 | Yes | HIT | 86.2 | 58.4 | –
8 | osanetant | 0 (non-toxic (Normalized Cell number>0.65) | 0 (non-toxic (Normalized Cell number>0.65) | 0.6882 | 4045 and 3932 and 4122 | 0.6903 and 0.671 and 0.7034 | 0.7783 | 4466 and 4973 and 4398 | 0.7536 and 0.8392 and 0.7421 | HIT | −0.8388 | −3.987 | Yes | HIT | – | – | % Infection (1 uM) (SARS-CoV-2; 1 uM): 13.75% and 14.37% and 16.0359%; Normalized Infection (1 uM) (SARS-CoV-2; 1 uM): 0.5233 and 0.547 and 0.6105; log2FC Infection (1 uM) (SARS-CoV-2; 1 uM): −0.9343 and −0.8703 and −0.7119; % Infection (5 uM) (SARS-CoV-2; 5 uM): 0.9628% and 1.307% and 0.7276%; Normalized Infection (5 uM) (SARS-CoV-2; 5 uM): 0.06253 and 0.08489 and 0.04725; log2FC Infection (5 uM) (SARS-CoV-2; 5 uM): −3.999 and −3.558 and −4.403
9 | C#C[C@]1(O)CC[C@H]2[C@@H]3CCC4=CCCC[C@@H]4[C@H]3C(=C)C[C@@]21CC [Desogestrel, desogestrel] | 0 (non-toxic (Normalized Cell number>0.65) | 0 (non-toxic (Normalized Cell number>0.65) | 0.8768 | 5131 and 5212 and 5072 | 0.8756 and 0.8894 and 0.8655 | 0.9255 | 5708 and 5824 and 4922 | 0.9632 and 0.9828 and 0.8305 | HIT | −0.4489 | −0.1002 | Yes | – | 80.9 | 87 | –
10 | COc1nc2ccc(Br)cc2cc1[C@@H](c1ccccc1)[C@@](O)(CCN(C)C)c1cccc2ccccc12 [TMC207, bedaquiline] | – | 0 (non-toxic (Normalized Cell number>0.65) | 0.6048 | 3465 and 3507 and 3661 | 0.5913 and 0.5985 and 0.6247 | 0.8191 | 5108 and 4528 and 4927 | 0.8619 and 0.7641 and 0.8314 | HIT | −0.3556 | −0.559 | Yes | HIT | 72.7 | 65.9 | –
11 | CC1(C)Cc2c(-c3ccccc3)c(-c3ccc(Cl)cc3)c(CC(=O)O)n2C1 [Licofelone, licofelone] | – | 0 (non-toxic (Normalized Cell number>0.65) | 0.6254 | 3716 and 3591 and 3687 | 0.6341 and 0.6128 and 0.6292 | 0.8061 | 4830 and 4798 and 4704 | 0.815 and 0.8096 and 0.7938 | HIT | −0.7411 | −0.555 | Yes | HIT | 59.1 | – | –
12 | CCOC(=O)N1CCC(=C2c3ccc(Cl)cc3CCc3cccnc32)CC1 [Loratadine, loratadine] | – | – | – | – | – | – | – | – | – | −0.3263 | −1.089 | – | – | 81.8 | 54 | HIT (SARS-CoV-2): Yes; HIT (2 Stdv, 5 uM) (SARS-CoV-2): HIT
13 | O=C(c1ccc(F)cc1)N1CCC[C@H](c2nc(-c3ccc(F)cc3)no2)C1 [ADX-47273, adx-47273] | – | – | – | – | – | – | – | – | HIT | – | – | Yes | – | – | – | Average Infection (1 uM) (SARS-CoV-2): −0.4315; Average Infection (5 uM) (SARS-CoV-2): −0.3579; % Infection (1 uM) (SARS-CoV-2; 1 uM): 21.77% and 18.58% and 18.27%; Normalized Infection (1 uM) (SARS-CoV-2; 1 uM): 0.8288 and 0.7074 and 0.6954; log2FC Infection (1 uM) (SARS-CoV-2; 1 uM): −0.271 and −0.4995 and −0.524; % Infection (5 uM) (SARS-CoV-2; 5 uM): 14.06% and 10.49% and 11.77%; Normalized Infection (5 uM) (SARS-CoV-2; 5 uM): 0.9128 and 0.681 and 0.7644; log2FC Infection (5 uM) (SARS-CoV-2; 5 uM): −0.1316 and −0.5544 and −0.3876
14 | Cc1ccccc1-n1c(Cn2nc(-c3cccc(O)c3)c3c(N)ncnc32)nc2cccc(C)c2c1=O [PIK-294, pik-294] | 0 (non-toxic (Normalized Cell number>0.65) | 0 (non-toxic (Normalized Cell number>0.65) | 0.7115 | 4346 and 3954 and 4208 | 0.7416 and 0.6747 and 0.7181 | 0.9038 | 5244 and 5589 and 5236 | 0.8849 and 0.9431 and 0.8835 | – | – | – | – | – | – | – | –
